Reference: patent US11597919B2, “Systems, methods and compositions for sequence manipulation with optimized functional CRISPR-Cas systems” (The Broad Institute, Inc., priority 2013, dated 2023)

How the values were obtained:
[1] = tested on: A375 melanoma cell line (BRAF V600E); details: cited from earlier work
HEK 293FT cells = assay: Nuclease and double-nicking activity of potential nickases, SURVEYOR analysis (Example 10); type: cell-based, human; details: 400 ng nickase, 100 ng sgRNA
Description: Nuclease and double-nicking activities for all potential nickases were tested in HEK 293FT cells as follows: co-transfection of 400 ng of nickase and 100 ng of U6-driven sgRNA (100 ng for one guide, or 50 ng each for a pair of sgRNAs) by Lipofectamine 2000 into ˜200,000 cells. DNAs from transfected cells were collected for SURVEYOR analysis.

RNA = details: cited from earlier work
human EMX1 locus [2] = assay: Surveyor assay for genome modification at the human EMX1 locus in HEK 293FT cells; type: cell-based; details: co-expression with EMX1-targeting chimeric crRNA; n=3
Description: Cells were transfected using Lipofectamine 2000 (Life Technologies) following the manufacturer's recommended protocol. For each well of a 24-well plate a total of 800 ng of plasmids were used.
Genomic DNA was extracted using the QuickExtract DNA extraction kit (Epicentre) following the manufacturer's protocol. […] Extracted genomic DNA was immediately processed or stored at −20° C.
The genomic region surrounding a CRISPR target site for each gene was PCR amplified, and products were purified using QiaQuick Spin Column (Qiagen) following manufacturer's protocol. A total of 400 ng of the purified PCR products were mixed with 2 μl 10× Taq polymerase PCR buffer (Enzymatics) and ultrapure water to a final volume of 20 μl, and subjected to a re-annealing process to enable heteroduplex formation: 95° C. for 10 min, 95° C. to 85° C. ramping at −2° C./s, 85° C. to 25° C. at −0.25° C./s, and 25° C. hold for 1 minute. After re-annealing, products were treated with Surveyor nuclease and Surveyor enhancer S (Transgenomics) following the manufacturer's recommended protocol, and analyzed on 4-20% Novex TBE poly-acrylamide gels (Life Technologies). Gels were stained with SYBR Gold DNA stain (Life Technologies) for 30 minutes and imaged with a Gel Doc gel imaging system (Bio-rad). Quantification was based on relative band intensities, as a measure of the fraction of cleaved DNA.

human EMX1 locus [3] = assay: Sequencing of amplicons containing the EMX1 target locus; type: cell-based; details: 327 amplicons
Description: HEK 293FT or N2A cells were transfected with plasmid DNA as described above. After transfection, the cells were incubated at 37° C. for 72 hours before genomic DNA extraction. Genomic DNA was extracted using the QuickExtract DNA extraction kit (Epicentre) following the manufacturer's protocol. Briefly, cells were resuspended in QuickExtract solution and incubated at 65° C. for 15 minutes and 98° C. for 10 minutes. Extracted genomic DNA was immediately processed or stored at −20° C.
Since DSBs in mammalian nuclei are partially repaired by the non-homologous end joining (NHEJ) pathway, which leads to the formation of indels, the Surveyor assay was used to detect potential cleavage activity at the target EMX1 locus (FIG. 7) (see e.g. Guschin et al., 2010, Methods Mol Biol 649: 247). Co-transfection of all four CRISPR components was able to induce up to 5.0% cleavage in the protospacer (see FIG. 2D). […] Removing any of the remaining three components abolished the genome cleavage activity of the CRISPR system (FIG. 2D). Sanger sequencing of amplicons containing the target locus verified the cleavage activity: in 43 sequenced clones, 5 mutated alleles (11.6%) were found. Similar experiments using a variety of guide sequences produced indel percentages as high as 29% (see FIGS. 3-6, 10, and 11).

[4] = tested on: genomic DNA in human embryonic kidney 293FT (HEK293FT) cells; assay: SURVEYOR nuclease assay of Cas9 and sgRNA mutants (Example 12); type: cell-based; details: Cas9 truncation and point mutants
Description: (§1) Cells were transfected using Lipofectamine 2000 (Life Technologies) at 70-80% confluency following the manufacturer's recommended protocol.
(§2) Genomic DNA was extracted using the QuickExtract DNA Extraction Solution (Epicentre) following the manufacturer's protocol.
(§3) 400 ng total of the purified PCR products were mixed with 2 μl 10× Taq DNA Polymerase PCR buffer (Enzymatics) and ultrapure water to a final volume of 20 μl, and subjected to a re-annealing process to enable heteroduplex formation: 95° C. for 10 min, 95° C. to 85° C. ramping at −2° C./s, 85° C. to 25° C. at −0.25° C./s, and 25° C. hold for 1 min. After re-annealing, products were treated with SURVEYOR nuclease and SURVEYOR enhancer S (Transgenomics) following the manufacturer's recommended protocol, and analyzed on 4-20% Novex TBE poly-acrylamide gels (Life Technologies). Gels were stained with SYBR Gold DNA stain (Life Technologies) for 30 min and imaged with a Gel Doc gel imaging system (Bio-rad). Quantification was based on relative band intensities. Indel percentage was determined by the formula, 100×(1−(1−(b+c)/(a+b+c))^1/2), where a is the integrated intensity of the undigested PCR product, and b and c are the integrated intensities of each cleavage product.

[5] = tested on: target DNA with 5′-NGG PAM; assay: Cleavage of target DNA bearing 5′-NGG PAM by PI domain chimeras (Example 12); type: cell-based, human; details: 5′-GGGCT
Description: as §1, §2, §3

Which “sensitivity of cell line to BRAF inhibitor” value [1] does the source give for CCCS(=O)(=O)Nc1ccc(F)c(C(=O)c2c[nH]c3ncc(Cl)cc23)c1F [PLX4720] here?
The value was “naturally sensitive”.

With “Cbh-hSpCas9(D10A)-NLS: SpCas9 RuvCI mutant D10A, homology set” as the molecule, how does the “Functional?” value (HEK 293FT cells) read?
Its value is “nickase activity”.

Which “Functional?” value (HEK 293FT cells) does the source give for “Cbh-hSpCas9(H840A)-NLS: SpCas9 HNH mutant H840A, homology set” here?
Its value is “no activity”.

With “N55K mutant: N55K mutant of the MS2 bacteriophage coat protein” as the molecule, how does the binding affinity (RNA) read?
Its binding affinity is “higher binding affinity than wild type MS2”.

For “SpCas9n: SpCas9 with aspartate-to-alanine substitution (D10A) in the RuvC I catalytic domain, a nickase”, which “indels at the EMX1 protospacer target” value (human EMX1 locus [2]) is on record?
The value was “does not generate indels”.

And the “indels detected by sequencing” value (human EMX1 locus [3])?
Its value is “did not detect any indels”.

B1: A1099-1368: SpCas9 with deletion of the PI domain, SEQ ID NO: 118 (protein)
chain: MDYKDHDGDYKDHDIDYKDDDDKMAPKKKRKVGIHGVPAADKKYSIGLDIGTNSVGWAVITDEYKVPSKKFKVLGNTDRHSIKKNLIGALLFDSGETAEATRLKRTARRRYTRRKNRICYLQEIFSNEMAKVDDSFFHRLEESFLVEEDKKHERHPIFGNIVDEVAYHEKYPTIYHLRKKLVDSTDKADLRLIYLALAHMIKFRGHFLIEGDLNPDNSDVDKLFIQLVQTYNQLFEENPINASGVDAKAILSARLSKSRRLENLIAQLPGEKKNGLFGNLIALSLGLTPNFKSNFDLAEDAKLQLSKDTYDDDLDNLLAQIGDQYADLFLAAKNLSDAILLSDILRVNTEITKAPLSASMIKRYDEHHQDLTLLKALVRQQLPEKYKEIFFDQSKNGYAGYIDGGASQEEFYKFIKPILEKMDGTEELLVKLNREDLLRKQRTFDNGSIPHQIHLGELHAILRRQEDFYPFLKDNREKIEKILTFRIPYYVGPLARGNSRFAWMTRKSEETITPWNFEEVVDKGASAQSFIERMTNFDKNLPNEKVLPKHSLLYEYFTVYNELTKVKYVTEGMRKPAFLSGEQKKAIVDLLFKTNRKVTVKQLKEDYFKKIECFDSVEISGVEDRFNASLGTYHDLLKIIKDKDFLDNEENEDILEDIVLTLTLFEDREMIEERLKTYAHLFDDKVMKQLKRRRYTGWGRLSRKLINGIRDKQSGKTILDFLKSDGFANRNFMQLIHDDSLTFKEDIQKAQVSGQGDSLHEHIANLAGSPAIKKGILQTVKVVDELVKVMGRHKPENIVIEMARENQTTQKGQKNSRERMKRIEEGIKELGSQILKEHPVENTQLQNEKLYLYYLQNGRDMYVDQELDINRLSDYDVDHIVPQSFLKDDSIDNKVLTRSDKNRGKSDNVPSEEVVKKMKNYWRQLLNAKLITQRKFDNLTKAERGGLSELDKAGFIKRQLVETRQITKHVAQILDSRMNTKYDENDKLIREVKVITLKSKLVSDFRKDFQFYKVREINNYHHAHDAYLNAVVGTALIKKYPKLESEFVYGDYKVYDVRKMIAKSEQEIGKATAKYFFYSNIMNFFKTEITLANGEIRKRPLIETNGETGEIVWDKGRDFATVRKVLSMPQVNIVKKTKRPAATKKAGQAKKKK
Which DNA cleavage activity [4] does the source give for B1 here?
The DNA cleavage activity was “abolished the cleavage activity”.

B2: Sp-St3Cas9: SpCas9 with the PI domain of St3Cas9, SEQ ID NO: 121 (protein)
chain: MDYKDHDGDYKDHDIDYKDDDDKMAPKKKRKVGIHGVPAADKKYSIGLDIGTNSVGWAVITDEYKVPSKKFKVLGNTDRHSIKKNLIGALLFDSGETAEATRLKRTARRRYTRRKNRICYLQEIFSNEMAKVDDSFFHRLEESFLVEEDKKHERHPIFGNIVDEVAYHEKYPTIYHLRKKLVDSTDKADLRLIYLALAHMIKFRGHFLIEGDLNPDNSDVDKLFIQLVQTYNQLFEENPINASGVDAKAILSARLSKSRRLENLIAQLPGEKKNGLFGNLIALSLGLTPNFKSNFDLAEDAKLQLSKDTYDDDLDNLLAQIGDQYADLFLAAKNLSDAILLSDILRVNTEITKAPLSASMIKRYDEHHQDLTLLKALVRQQLPEKYKEIFFDQSKNGYAGYIDGGASQEEFYKFIKPILEKMDGTEELLVKLNREDLLRKQRTFDNGSIPHQIHLGELHAILRRQEDFYPFLKDNREKIEKILTFRIPYYVGPLARGNSRFAWMTRKSEETITPWNFEEVVDKGASAQSFIERMTNFDKNLPNEKVLPKHSLLYEYFTVYNELTKVKYVTEGMRKPAFLSGEQKKAIVDLLFKTNRKVTVKQLKEDYFKKIECFDSVEISGVEDRFNASLGTYHDLLKIIKDKDFLDNEENEDILEDIVLTLTLFEDREMIEERLKTYAHLFDDKVMKQLKRRRYTGWGRLSRKLINGIRDKQSGKTILDFLKSDGFANRNFMQLIHDDSLTFKEDIQKAQVSGQGDSLHEHIANLAGSPAIKKGILQTVKVVDELVKVMGRHKPENIVIEMARENQTTQKGQKNSRERMKRIEEGIKELGSQILKEHPVENTQLQNEKLYLYYLQNGRDMYVDQELDINRLSDYDVDHIVPQSFLKDDSIDNKVLTRSDKNRGKSDNVPSEEVVKKMKNYWRQLLNAKLITQRKFDNLTKAERGGLSELDKAGFIKRQLVETRQITKHVAQILDSRMNTKYDENDKLIREVKVITLKSKLVSDFRKDFQFYKVREINNYHHAHDAYLNAVVGTALIKKYPKLESEFVYGDYKVYDVRKMIAKSEQEIGKATAKYFFYSNIMNFFKTEITLANGEIRKRPLIETNGETGEIVWDKGRDFATVRKVLSMPQVNIVKKTVEEQNHGLDRGKPKGLFNANLSSKPKPNSNENLVGAKEYLDPKKYGYGGYAGISNSFTVLVKGTIEKGAKKKITNVLEFQGISILDRINYRKDKLNFLLEKGYKDIELIIELPKYSLFELSDGSRRMLASILSTNNKRGEIHKGNQIFLSQKFVKLLYHAKRISNTINENHRKYVENHKKEFEELFYYILEFNENYVGAKKNGKLLNSAFQSWQNHSIDELCSSFIGPTGSERKGLFELTSRGSAADFEFLGVKIPRYRDYTPSSLLKDATLIHQSVTGLYETRIDLAKLGEGKRPAATKKAGQAKKKK
With B2 as the molecule, how does the “cleavage of target DNA with 5′-NGG PAM” value [5] read?
Its value is “retained cleavage activity for the target DNA with 5′-NGG PAM, albeit at a lower level than that of SpCas9”.

B3: St3-SpCas9: St3Cas9 with the PI domain of SpCas9, SEQ ID NO: 122 (protein)
chain: MAPKKKRKVGIHGVPAAMTKPYSIGLDIGTNSVGWAVTTDNYKVPSKKMKVLGNTSKKYIKKNLLGVLLFDSGITAEGRRLKRTARRRYTRRRNRILYLQEIFSTEMATLDDAFFQRLDDSFLVPDDKRDSKYPIFGNLVEEKAYHDEFPTIYHLRKYLADSTKKADLRLVYLALAHMIKYRGHFLIEGEFNSKNNDIQKNFQDFLDTYNAIFESDLSLENSKQLEEIVKDKISKLEKKDRILKLFPGEKNSGIFSEFLKLIVGNQADFRKCFNLDEKASLHFSKESYDEDLETLLGYIGDDYSDVFLKAKKLYDAILLSGFLTVTDNETEAPLSSAMIKRYNEHKEDLALLKEYIRNISLKTYNEVFKDDTKNGYAGYIDGKTNQEEEDFYVYLKKLLAEFEGADYFLEKIDREDFLRKQRTFDNGSIPYQIHLQEMRAILDKQAKFYPFLAKNKERIEKILTFRIPYYVGPLARGNSDFAWSIRKRNEKITPWNFEDVIDKESSAEAFINRMTSFDLYLPEEKVLPKHSLLYETFNVYNELTKVRFIAESMRDYQFLDSKQKKDIVRLYFKDKRKVTDKDIIEYLHAIYGYDGIELKGIEKQFNSSLSTYHDLLNIINDKEFLDDSSNEAIIEEIIHTLTIFEDREMIKQRLSKFENIFDKSVLKKLSRRHYTGWGKLSAKLINGIRDEKSGNTILDYLIDDGISNRNFMQLIHDDALSFKKKIQKAQIIGDEDKGNIKEVVKSLPGSPAIKKGILQSIKIVDELVKVMGGRKPESIVVVVEMARENQYTNQGKSNSQQRLKRLEKSLKELGSKILKENIPAKLSKIDNNALQNDRLYLYYLQNGKDMYTGDDLDIDRLSNYDIDHIIPQAFLKDNSIDNKVLVSSASNRGKSDDVPSLEVVKKRKTFWYQLLKSKLISQRKFDNLTKAERGGLSPEDKAGFIQRQLVETRQITKHVARLLDEKFNNKKDENNRAVRTVKIITLKSTLVSQFRKDFELYKVREINDFHHAHDAYLNAVVASALLKKYPKLEPEFVYGDYPKYNSFRERKSATEKVYFYSNIMNIFKKSISLADGRVIERPLIEVNEETGESVWNKESDLATVRRVLSYPQVNVVKKTEVQTGGFSKESILPKRNSDKLIARKKDWDPKKYGGFDSPTVAYSVLVVAKVEKGKSKKLKSVKELLGITIMERSSFEKNPIDFLEAKGYKEVKKDLIIKLPKYSLFELENGRKRMLASAGELQKGNELALPSKYVNFLYLASHYEKLKGSPEDNEQKQLFVEQHKHYLDEIIEQISEFSKRVILADANLDKVLSAYNKHRDKPIREQAENIIHLFTLTNLGAPAAFKYFDTTIDRKRYTSTKEVLDATLIHQSITGLYETRIDLSQLGGDKRPAATKKAGQAKKKK
For B3, which “cleavage of target DNA with 5′-NGG PAM” value [5] is on record?
The value was “cleaved”.
